Assay results as given in ChEMBL document CHEMBL3885861, “Open TG-GATES”.

Organism: Rattus norvegicus
Experiment: Open TG-GATES - Regimen: Single
Assay type: toxicity, organism-based, Sprague-Dawley
Set-up: regimen Single, gender Male, age 6 weeks
Details: in vivo, po, 10 mg/kg, route gavage, dose level Low; for APTT / Bas / Eos / Fbg / Hb / Ht / Lym / MCH / MCHC / MCV / Mono / Neu / PT / Plat / RBC / Ret / WBC: tissue Blood; for KIDNEY_L / KIDNEY_R / KIDNEY_TOTAL: tissue Kidney; for LIVER: tissue Liver; for ALP / ALT / AST / BUN / CRE / Ca / Cl / DBIL / GLC / IP / K / LDH / Na / PL / RALB / TBIL / TC / TG / TP / gamma-GTP: tissue Plasma

SMILES: COc1cc([C@@H]2c3cc4c(cc3[C@@H](O[C@@H]3O[C@@H]5CO[C@@H](C)O[C@H]5[C@H](O)[C@H]3O)[C@H]3COC(=O)[C@H]23)OCO4)cc(OC)c1O [ETOPOSIDE]
- TERMINAL_BW (3 h): 200.9 g
- APTT (3 h): 16.9 s
- Bas (3 h): 0%
- Eos (3 h): 1.2%
- Fbg (3 h): 201 mg/dL
- Hb (3 h): 13.4 g/dL
- Ht (3 h): 39.9%
- Lym (3 h): 76.4%
- MCH (3 h): 22.1 pg
- MCHC (3 h): 33.7%
- MCV (3 h): 65.7 fL
- Mono (3 h): 8%
- Neu (3 h): 14.8%
- PT (3 h): 12.3 s
- Plat (3 h): 115.3 x10_4/uL
- RBC (3 h): 606.6 x10_4/ul
- Ret (3 h): 10.2%
- WBC (3 h): 99.6 x10_2/uL
- KIDNEY_L (3 h): 0.9 g
- KIDNEY_R (3 h): 0.9 g
- KIDNEY_TOTAL (3 h): 1.9 g
- LIVER (3 h): 9.4 g
- ALP (3 h): 896.4 IU/L
- ALT (3 h): 34.2 IU/L
- AST (3 h): 67.2 IU/L
- BUN (3 h): 13 mg/dL
- CRE (3 h): 0.5 mg/dL
- Ca (3 h): 10.7 mg/dL
- Cl (3 h): 104.6 meq/L
- DBIL (3 h): 0.012 mg/dL
- GLC (3 h): 192.8 mg/dL
- IP (3 h): 9 mg/dL
- K (3 h): 4.5 meq/L
- LDH (3 h): 114.2 IU/L
- Na (3 h): 141.8 meq/L
- PL (3 h): 134 mg/dL
- RALB (3 h): 3.5 g/dL
- TBIL (3 h): 0.3 mg/dL
- TC (3 h): 75.8 mg/dL
- TG (3 h): 46.4 mg/dL
- TP (3 h): 5.4 g/dL
- gamma-GTP (3 h): 2 IU/L
- TERMINAL_BW (6 h): 198.3 g
- APTT (6 h): 16.9 s
- Bas (6 h): 0%
- Eos (6 h): 1%
- Fbg (6 h): 194.4 mg/dL
- Hb (6 h): 13.6 g/dL
- Ht (6 h): 40.8%
- Lym (6 h): 79.8%
- MCH (6 h): 21.6 pg
- MCHC (6 h): 33.3%
- MCV (6 h): 64.9 fL
- Mono (6 h): 6.4%
- Neu (6 h): 13.2%
- PT (6 h): 11.8 s
- Plat (6 h): 110.4 x10_4/uL
- RBC (6 h): 629.6 x10_4/ul
- Ret (6 h): 9.8%
- WBC (6 h): 78.9 x10_2/uL
- KIDNEY_L (6 h): 1 g
- KIDNEY_R (6 h): 1 g
- KIDNEY_TOTAL (6 h): 2 g
- LIVER (6 h): 8.6 g
- ALP (6 h): 862.6 IU/L
- ALT (6 h): 35 IU/L
- AST (6 h): 66.8 IU/L
- BUN (6 h): 10.8 mg/dL
- CRE (6 h): 0.6 mg/dL
- Ca (6 h): 10.5 mg/dL
- Cl (6 h): 104.4 meq/L
- DBIL (6 h): 0.02 mg/dL
- GLC (6 h): 195.4 mg/dL
- IP (6 h): 10.2 mg/dL
- K (6 h): 4.6 meq/L
- LDH (6 h): 99.4 IU/L
- Na (6 h): 142 meq/L
- PL (6 h): 128 mg/dL
- RALB (6 h): 3.3 g/dL
- TBIL (6 h): 0.4 mg/dL
- TC (6 h): 72.2 mg/dL
- TG (6 h): 42.6 mg/dL
- TP (6 h): 5.2 g/dL
- gamma-GTP (6 h): 0.8 IU/L
- TERMINAL_BW (9 h): 198.7 g
- APTT (9 h): 16.8 s
- Bas (9 h): 0%
- Eos (9 h): 0.6%
- Fbg (9 h): 184.6 mg/dL
- Hb (9 h): 13.5 g/dL
- Ht (9 h): 39.7%
- Lym (9 h): 77%
- MCH (9 h): 22.1 pg
- MCHC (9 h): 33.9%
- MCV (9 h): 65.1 fL
- Mono (9 h): 6.8%
- Neu (9 h): 15.8%
- PT (9 h): 11 s
- Plat (9 h): 113.8 x10_4/uL
- RBC (9 h): 611 x10_4/ul
- Ret (9 h): 8.6%
- WBC (9 h): 75.9 x10_2/uL
- KIDNEY_L (9 h): 0.9 g
- KIDNEY_R (9 h): 1 g
- KIDNEY_TOTAL (9 h): 1.9 g
- LIVER (9 h): 8.1 g
- ALP (9 h): 777.2 IU/L
- ALT (9 h): 32.8 IU/L
- AST (9 h): 64.6 IU/L
- BUN (9 h): 10.2 mg/dL
- CRE (9 h): 0.6 mg/dL
- Ca (9 h): 10.6 mg/dL
- Cl (9 h): 105.6 meq/L
- DBIL (9 h): 0.036 mg/dL
- GLC (9 h): 198.8 mg/dL
- IP (9 h): 10.4 mg/dL
- K (9 h): 4.6 meq/L
- LDH (9 h): 74.6 IU/L
- Na (9 h): 143.4 meq/L
- PL (9 h): 127.2 mg/dL
- RALB (9 h): 3.4 g/dL
- TBIL (9 h): 0.4 mg/dL
- TC (9 h): 70.8 mg/dL
- TG (9 h): 35.2 mg/dL
- TP (9 h): 5.3 g/dL
- gamma-GTP (9 h): 1.6 IU/L
- TERMINAL_BW (24 h): 209.8 g
- APTT (24 h): 15.8 s
- Bas (24 h): 0%
- Eos (24 h): 1%
- Fbg (24 h): 206.6 mg/dL
- Hb (24 h): 13.3 g/dL
- Ht (24 h): 39.5%
- Lym (24 h): 79.2%
- MCH (24 h): 21.7 pg
- MCHC (24 h): 33.7%
- MCV (24 h): 64.3 fL
- Mono (24 h): 6.6%
- Neu (24 h): 13.6%
- PT (24 h): 11.6 s
- Plat (24 h): 108.6 x10_4/uL
- RBC (24 h): 613.8 x10_4/ul
- Ret (24 h): 8.9%
- WBC (24 h): 89.3 x10_2/uL
- KIDNEY_L (24 h): 1 g
- KIDNEY_R (24 h): 1 g
- KIDNEY_TOTAL (24 h): 2 g
- LIVER (24 h): 10.2 g
- ALP (24 h): 1017 IU/L
- ALT (24 h): 33 IU/L
- AST (24 h): 68 IU/L
- CRE (24 h): 0.6 mg/dL
- Ca (24 h): 11.1 mg/dL
- Cl (24 h): 104.6 meq/L
- DBIL (24 h): 0.012 mg/dL
- GLC (24 h): 200.6 mg/dL
- IP (24 h): 8.1 mg/dL
- K (24 h): 4.6 meq/L
- LDH (24 h): 109.6 IU/L
- Na (24 h): 141.6 meq/L
- PL (24 h): 155.2 mg/dL
- RALB (24 h): 3.5 g/dL
- TBIL (24 h): 0.3 mg/dL
- TC (24 h): 87.8 mg/dL
- TG (24 h): 82.6 mg/dL
- TP (24 h): 5.5 g/dL
- gamma-GTP (24 h): 1.4 IU/L
